Measured values as given in patent publication US9443060B2, “Method and system to provide personalized pharmaceutical compositions and dosages” (Volant Holdings GMBH, priority 2009, dated 2016).
Like-named read-outs stand apart in the source and are kept apart here.

Legend:
insulin resistance (IR) [1] = conditions: cited from earlier work
[2] = test system: brush border vesicles isolated from rabbit intestine; conditions: 5 mM metformin; cited from earlier work
[3] = test system: peripheral insulin exposure (PIE); conditions: cited from earlier work
[4] = test system: peripheral glucose uptake (PGU); conditions: cited from earlier work
[5] = test system: intestinal glucose utilization; conditions: cited from earlier work
[6] = test system: hepatic gluconeogenesis (GNG); experiment: Glucose supply and insulin demand model: effect on hepatic gluconeogenesis; type: in vivo, human
Protocol: (§1) Therapeutic targets of the glucose supply (CE, 1+2; HGU, 3; GNG, 4; IR, 5) and insulin demand (PGU, 6; PIE, 7) model are presented in FIG. 1. To identify quantitative differences between antidiabetic agents on CE, HGU, GNG, IR, PGU, and PIE, multidatabase searches (Cochrane Central Register of Controlled Trials and Cochrane Register of Systematic Reviews, Embase, OVID Healthstar, OVID Journals, and PubMed) were conducted cross-referencing title and keywords for all selected antidiabetic therapies and their respective targets.
(§2) Alpha-glucosidase, biguanide, and thiazolidinedione (TZD) studies with long-term, pre-post design at maximal therapeutic doses were identified to simulate chronic administration. To maintain consistency with cardiovascular trials and accommodate known influences of hyperglycemia and hyperinsulinemia on the respective targets,^13-16 studies including patients with HbA1c in the range of 6-8% and body mass index (BMI)≧30 kg/m^2 were preferentially selected. In the event multiple studies were available to identify the effect of an agent on a therapeutic target, the mean percent change was used. Conversely, if there was evidence that an agent would elicit a response on a given target but no mathematical representation of the difference was provided, conservative estimates consistent with the scale of other agents and the degree of glucose regulation were instituted to best represent the expected effect. Individual agents were then characterized for the 24 h percent change from baseline for CE, HGU, GNG, IR, PGU, and PIE. Carbohydrate exposure was determined as the combined effect of caloric intake and intestinal carbohydrate absorption. Hepatic glucose uptake was defined as the reported value obtained immediately following oral glucose loading. Because GNG is known to be enhanced in the fasting state and persistent throughout the prandial phase,^17,18 effect was determined during the fasting state and considered equivalent throughout the prandial phase. For studies evaluating fasting glucose and insulin concentrations, an index of IR was determined by homeostasis model assessment of insulin resistance (HOM-AIR) using the following formula: Insulin (mU/liter)×Glucose (mmol)/22.5.^19 To account for known differences in secretory and uptake dynamics during the fasting and prandial phases, studies identifying the impact of therapies during the fasting state (or simulated hyperinsulinemic euglycemic clamp) and prandial phase (or oral glucose load insulin clamp) were specifically identified for changes in PGU (glucose infusion rate) and PIE (insulin concentrations) according to Equation (1): […]
(§3) For sulfonylurea and insulin-based therapies, insulin concentration time profiles were obtained and superimposed on the baseline 24 h insulin concentration time profile of T2D patients (FIG. 2) to calculate the increase in PIE (trapezoidal rule).^20 Calculated increases in incremental and cumulative insulin exposure were correlated to known insulin dose-response effects on HGU, GNG, and PGU (FIG. 3),^18,21 according to the equation y=mx+b. Twenty-four-hour increases in HGU, PGU, and PIE and decreases in GNG were compared to baseline values and percent change calculated.
(§4) With alpha-glucosidase, biguanide, TZD, secretagogue, and insulin therapies characterized for their respective impacts on CE, HGU, GNG, IR, PIE, and PGU, identification of their effect on the glucose supply (decrease in CE, increase in HGU, decrease in GNG, decrease in IR) and insulin demand (increase in PIE, increase in PGU) dynamic was assessed according to Equation (2), which provides the SD ratio according to the invention: […]

insulin resistance (IR) [7] = experiment: Glucose supply and insulin demand model: effect on insulin resistance; type: in vivo, human
Protocol: as §1, §2, §3, §4

[8] = test system: hepatic glucose uptake (HGU); conditions: Iozzo; metformin 2000 mg daily, rosiglitazone 8 mg daily; 26 weeks; PET [18F]FDG, insulin clamp; cited from earlier work
[9] = test system: hepatic glucose uptake (HGU); experiment: Glucose supply and insulin demand model: effect on hepatic glucose uptake; type: in vivo, human
Protocol: as §1, §2, §3, §4

[10] = test system: peripheral insulin exposure (PIE); experiment: Glucose supply and insulin demand model: effect on peripheral insulin exposure; type: in vivo, human
Protocol: as §1, §2, §3, §4
Twenty-four-hour steady state insulin concentration time curves were superimposed on the baseline secretion profile of the standard T2D patient.

[11] = test system: intestinal carbohydrate absorption; conditions: Jackson; metformin, 75 g oral glucose load with labeled glucose, 3 h; cited from earlier work
[12] = test system: intestinal glucose transfer; conditions: metformin 50 mg/kg, mice; cited from earlier work
[13] = test system: carbohydrate exposure (CE); experiment: Glucose supply and insulin demand model: effect on carbohydrate exposure; type: in vivo, human; parameters: scale not given here; conditions: Metformin 2000 mg, Glyburide 10 mg, Pioglitazone 45 mg, Insulin Glargine 0.5 U/kg daily; pH encapsulated glucose 3.0 grams/day
Protocol: as §1, §2, §3, §4

[14] = test system: peripheral glucose uptake (PGU); experiment: Glucose supply and insulin demand model: effect on peripheral glucose uptake; type: in vivo, human
Protocol: as §1, §2, §3, §4

[15] = Metformin 2000 mg, Glyburide 10 mg, Pioglitazone 45 mg, Insulin Glargine 0.5 U/kg daily, pH encapsulated glucose 3.0 grams/day

Structure (SMILES): CN(C)C(=N)N=C(N)N [Metformin]
- reduction of calculated IR (insulin resistance (IR) [1]; T2D patients, maximal therapeutic doses of metformin (Iozzo, Stumvoll, Tiikkainen, Sharma)): 38-44%
- reduction of calculated IR (HOMA-IR) (insulin resistance (IR) [1]; meta-analysis of randomized controlled trials, people at risk for T2D, metformin): 22.6%
- glucose uptake [2]: nominal decrease in glucose uptake
- mean fasting and postprandial plasma insulin concentrations ([3]; Inzucchi, metformin 2000 mg daily, 12 weeks): slightly, but not significantly reduced
- FPI ([3]; Iozzo, metformin, before 63±12): 43.0 ± 5.0 pmol/L
- reduction of FPI ([3]; Iozzo, metformin): ~30%
- FPI ([3]; Sharma, metformin 2000 mg daily, 16 weeks, before 76.0±54.5): 69.0 ± 45.0 pmol/L
- reduction in FPI ([3]; Sharma, metformin 2000 mg daily, 16 weeks): ~10%
- FPI ([3]; Stumvoll, metformin, before 12±5): 10 μU/ml
- reduction of FPI ([3]; Stumvoll, metformin): 17%
- FPI ([3]; Tiikkainen, metformin 2000 mg daily, 16 weeks, before 13): 9 mU/liter
- reduction in FPI ([3]; Tiikkainen, metformin 2000 mg daily, 16 weeks): ~30%
- reduction of FPI concentrations (range over studies) ([3]; metformin): 10-30%
- increase in glucose infusion rate ([4]; Inzucchi, metformin 2000 mg daily, 12 weeks, euglycemic hyperinsulinemic clamp at 100 mg/dl): 13%
- glucose infusion rate ([4]; Inzucchi, metformin 2000 mg daily, 12 weeks, euglycemic hyperinsulinemic clamp, before 240): 272 mg/m^−2/min^−1
- rate of plasma glucose turnover ([4]; Stumvoll, metformin, before 2.8±0.2): 2.0±0.2 mg/kg^−1/min^−1
- systemic glucose disposal ([4]; Stumvoll, metformin): did not change
- glucose rate of disappearance ([4]; Tiikkainen, metformin 2000 mg daily, 16 weeks, clamp at 144 mg/dl, before 0.09±0.01, unchanged): 0.10±0.01 mg/kg^−1/min^−1
- increase in glucose utilization in mucosa from different regions of the intestine ([5]; Bailey, metformin 250 mg/kg^−1, normal rats, intravenous glucose tolerance test): 30-60%
- increase in glucose utilization in the jejunum ([5]; Penicaud, metformin 350 mg/kg^−1/day^−1 for 8 days, obese fa/fa rats): 39%
- Score HGI [6, 15]: 0.35
- GNG inhibition ([6]; adjustment factor = decrease in hepatic gluconeogenesis at the therapeutic dose of Table 1, T2D): 0.35
- Score IR (insulin resistance (IR) [7]; [15]): 0.38
- IR reduction (insulin resistance (IR) [7]; adjustment factor = decrease in insulin resistance at the therapeutic dose of Table 1, T2D): 0.38
- increase in HGU, placebo-subtracted value [8]: +0.008±0.004 μmol/kg^−1/min^−1
- Score HGU [9, 15]: 0.40
- HGU uptake ([9]; adjustment factor = increase in hepatic glucose uptake at the therapeutic dose of Table 1, T2D): 0.40
- Score PIE [10, 15]: −0.10
- PIE ([10]; adjustment factor = increase in peripheral insulin exposure at the therapeutic dose of Table 1, T2D): −0.10
- absorption of glucose [11]: slightly delayed, but ultimately unaltered
- reduction of net glucose transfer in the serosal fluid [12]: 12%
- Score CE [13]: 0.15
- Score PGU [14, 15]: 0.14
- PGU ([14]; adjustment factor = increase in peripheral glucose uptake at the therapeutic dose of Table 1, T2D): 0.14
